Here are results for eight molecules from patent publication US8729264B2, “Agent for prevention and/or treatment of skin diseases” (Kyowa Hakko Kirin Co., Ltd., priority 2007, dated 2014).

Molecules are shown by their SMILES.

The subject of this test is dinitrofluorobenzene-induced ear edema. Briefly: Suppressive action on dinitrofluorobenzene-induced ear edema reaction in mouse. Type of test: in vivo, BALB/c mice (printed BALE/c). The following applies: topical, test compound 1% (w/v) in acetone applied to front and back of auricle 1 hr before and 3 hr after induction, auricle thickness 24 hr after induction, female mice, read-out: ear edema suppressive rate (%). The method, then: 5-Week to 6-week old BALE/c mice (female, supplied by CHARLES RIVER LABORATORIES JAPAN, INC) were purchased and, after quarantine and habituation, those showing satisfactory body weight increase and free of abnormal appearance were used to start the test from 7 weeks of age. The animals were housed and bred in plastic cages (6 mice per cage) in a breeding chamber set at room temperature 19-25° C., humidity 30-70%, 12 hr illumination per day (7 a.m.-7 p.m.), with free access to a commercially available solid feed and water.
One day before the test, the abdomen was shaved, and a solution of dinitrofluorobenzene (manufactured by Nacalai Tesque) in acetone (manufactured by Wako Pure Chemical Industries, Ltd.) {concentration 0.5% [weight (w)/volume (v) %]} was applied to the shaved part of BALE/c mice by 100 μL for sensitization. On day 5 after sensitization, a dinitrofluorobenzene-acetone solution [concentration 0.2% (w/v %)] was applied to the front and the back of the auricle by 10 μL each (total 20 μL) to induce reaction. A test compound dissolved in acetone to the concentration of 1% (w/v %) was applied to the front and the back of the auricle 1 hr before and 3 hr after the induction of reaction each by 10 μL or 40 μL (total 20 μL or 80 μL). After the application, the applied part was air-dried by a dryer.
A group administered with the test compound by coating was taken as a test compound administration group, and a group administered with acetone (solvent) by coating instead of the test compound was taken as a solvent administration group. In addition, a group free of sensitization and induction of reaction and administered with acetone by coating instead of the test compound was taken as a normal group. The thickness of the auricle was measured immediately before induction of reaction and 24 hr after the induction with a dial thickness gauge (manufactured by OZAKI MFG. CO., LTD., G-1A), and the difference between them was taken as ear edema. The ear edema suppressive rate (%) was calculated according to the following formula.

For the molecule `CS(=O)(=O)NC(=O)c1cnn2c(NCc3ccccc3)c(C(=O)N3CCC(c4ccccc4)CC3)cnc12` [a-1, N-[7-Benzylamino-6-(4-phenylpiperidine-1-carbonyl)pyrazolo[1,5-a]pyrimidine-3-carbonyl]methanesulfonamide], the inhibition in vivo at 1 % was determined as 20%.
`CCS(=O)(=O)NC(=O)c1cnn2c(Nc3ccc(F)cc3C)c(C(=O)N3CCC(c4ccccc4)CC3)cnc12` [a-57, N-[7-(4-Fluoro-2-methylphenylamino)-6-(4-phenylpiperidine-1-carbonyl)pyrazolo[1,5-a]pyrimidine-3-carbonyl]ethanesulfonamide]: the inhibition in vivo at 1 % amounted to 35%.
With `CCS(=O)(=O)NC(=O)c1cnn2c(Nc3cc(C)ccc3F)c(C(=O)N3CCC(c4ccccc4)CC3)cnc12` [a-59, N-[7-(2-Fluoro-5-methylphenylamino)-6-(4-phenylpiperidine-1-carbonyl)pyrazolo[1,5-a]pyrimidine-3-carbonyl]ethanesulfonamide], the inhibition in vivo at 1 % stood at 6%.
As to `CCS(=O)(=O)NC(=O)c1cnn2c(Nc3cc(C)ccc3F)c(C(=O)N3CCC(c4ccc(F)cc4)CC3)cnc12` [a-81, N-{7-(2-Fluoro-5-methylphenylamino)-6-[4-(4-fluorophenyl)piperidine-1-carbonyl]pyrazolo[1,5-a]pyrimidine-3-carbonyl}ethanesulfonamide], the inhibition in vivo at 1 % worked out at 25%.
`CCS(=O)(=O)NC(=O)c1cnn2c(Nc3ccc(F)cc3C)c(C(=O)N3CCC(c4ccc(F)cc4)CC3)cnc12` [a-84, N-{7-(4-Fluoro-2-methylphenylamino)-6-[4-(4-fluorophenyl)piperidine-1-carbonyl]pyrazolo[1,5-a]pyrimidine-3-carbonyl}ethanesulfonamide]: the inhibition in vivo at 1 % is 25%.
For `CS(=O)(=O)NC(=O)c1cnn2c(NCc3ccccc3)c(C(=O)N3CCC(F)(c4ccccc4)CC3)cnc12` [a-96, N-[7-Benzylamino-6-(4-fluoro-4-phenylpiperidine-1-carbonyl)pyrazolo[1,5-a]pyrimidine-3-carbonyl]methanesulfonamide], the inhibition in vivo at 1 % came to 10%.
Consider `O=C(NS(=O)(=O)C1CC1)c1cnn2c(NCc3ccccc3)c(C(=O)N3CCC4(CC3)COc3ccccc34)cnc12` [a-126, N-[7-Benzylamino-6-(2H-spiro[benzofuran-3,4′-piperidine]-1′-ylcarbonyl)pyrazolo[1,5-a]pyrimidine-3-carbonyl]cyclopropanesulfonamide], for which the inhibition in vivo at 1 % was determined as 10%.
Consider `CCS(=O)(=O)NC(=O)c1cnn2c(Nc3cc(C)ccc3C)c(C(=O)N3CCC4(CC3)COc3cc(F)ccc34)cnc12` [a-137, N-[7-(2,5-Dimethylphenylamino)-6-(6-fluoro-2H-spiro[benzofuran-3,4′-piperidine]-1′-ylcarbonyl)pyrazolo[1,5-a]pyrimidine-3-carbonyl]ethanesulfonamide], for which the inhibition in vivo at 1 % was found to be 5%.
